Test results from publication PMC8079033, “Design, synthesis, anticancer evaluation, and molecular modelling studies of novel tolmetin derivatives as potential VEGFR-2 inhibitors and apoptosis inducers” (Journal of Enzyme Inhibition and Medicinal Chemistry, 2021).

Columns and labels:
SN 12 C = test: NCI 60-cell line one-dose antiproliferative screen (SRB); format: cell-based; conditions: Homo sapiens, SN12C, read-out: growth inhibition % (GI%)
Experimental: (§1) Anticancer activity screening of the newly synthesised compounds was measured in vitro utilising 60 different human tumour cell lines provided by US National Cancer Institute according to previously reported standard procedure[41–43] as follows: Cells are inoculated into 96-well microtiter plates in 100 ml. After cell inoculation, the microtiter plates are incubated at 37 °C, 5% CO2, 95% air, and 100% relative humidity for 24 h prior to addition of experimental compounds. After 24 h, two plates of each cell line are fixed in situ with TCA, to represent a measurement of the cell population for each cell line at the time of compound addition (Tz). Experimental compounds are solubilised in dimethyl sulfoxide at 400-fold the desired final maximum test concentration and stored frozen prior to use. At the time of compound addition, an aliquot of frozen concentrate is thawed and diluted to twice the desired final maximum test concentration with a complete medium containing […] gentamicin. Aliquots of […] of the compounds dilutions are added to the appropriate microtiter wells already containing 100 ml of medium, resulting in the required final compound concentration. Following compound addition, the plates are incubated for an additional 48 h at 37 °C, 5% CO2, 95% air, and 100% relative humidity. For adherent cells, the assay is terminated by the addition of cold trichloroacetic acid (TCA). Cells are fixed in situ by the gentle addition of 50 ml of cold 50% (w/v) TCA (final concentration, 10% TCA) and incubated for […] at 4 °C. The supernatant is discarded, and the plates are washed five times with tap water and air-dried. Sulforhodamine B (SRB) solution (100 ml) at 0.4% (w/v) in 1% acetic acid is added to each well, and plates are incubated for 10 min at room temperature. After staining, the unbound dye is removed by washing five times with 1% acetic acid and the plates are air-dried. The bound stain is subsequently solubilised with a 10 mM trizma base, and the absorbance is read on an automated plate reader at a wavelength of 515 nm. For suspension cells, the methodology is the same except that the assay is terminated by fixing settled cells at the bottom of the wells by gently adding 50 ml of 80% TCA (final concentration, 16% TCA). Using the absorbance measurements [time zero, (Tz), control growth, (C), and test growth in the presence of compound (Ti)], the percentage growth is calculated for each compound. The One-dose data are reported as a mean graph of the percent growth of treated cells. The reported number is growth relative to the no-compound control, and relative to the time zero number of cells. This allows the detection of both growth inhibition and lethality.
(§2) Fifteen newly synthesised compounds were tested for their in vitro antiproliferative activity by the National Cancer Institute (NCI), Maryland, USA[50], under the Developmental Therapeutic Program (DTP)[41]^,[43]^,[51]^,[52]. The tested compounds were evaluated at a concentration of 10 µM on a panel of 60 tumour cell lines representing leukaemia and non-small cell lung, colon, CNS, melanoma, ovarian, renal, prostate, and breast cancers. The antiproliferative activity was presented by the NCI as percent growth of the treated cells and is presented in Table 1 as growth inhibition percentage (GI%) achieved by the tested compounds.

T-47D = test: as above; format: cell-based; conditions: Homo sapiens, T47D, read-out: growth inhibition % (GI%)
Experimental: as §1, §2

OVCAR-8 = test: as above; format: cell-based; conditions: Homo sapiens, read-out: growth inhibition % (GI%)
Experimental: as §1, §2

U251 = test: as above; format: cell-based; conditions: Homo sapiens, U-251, read-out: growth inhibition % (GI%)
Experimental: as §1, §2

NCI-H522 = test: as above; format: cell-based; conditions: Homo sapiens, read-out: growth inhibition % (GI%)
Experimental: as §1, §2

A549/ATCC = test: as above; format: cell-based; conditions: Homo sapiens, read-out: growth inhibition % (GI%)
Experimental: as §1, §2

SF-539 = test: as above; format: cell-based; conditions: Homo sapiens, read-out: growth inhibition % (GI%)
Experimental: as §1, §2

BT-5 = test: as above; format: cell-based; conditions: Homo sapiens, read-out: growth inhibition % (GI%)
Experimental: as §1, §2

SW-620 = test: as above; format: cell-based; conditions: Homo sapiens, read-out: growth inhibition % (GI%)
Experimental: as §1, §2

HCT-15 = test: as above; format: cell-based; conditions: Homo sapiens, read-out: growth inhibition % (GI%)
Experimental: as §1, §2

IGROV1 = test: as above; format: cell-based; conditions: Homo sapiens, IGROV-1, read-out: growth inhibition % (GI%)
Experimental: as §1, §2

HCC-2998 = test: as above; format: cell-based; conditions: Homo sapiens, read-out: growth inhibition % (GI%)
Experimental: as §1, §2

MDA-MB-231/ATCC = test: as above; format: cell-based; conditions: Homo sapiens, read-out: growth inhibition % (GI%)
Experimental: as §1, §2

PC-3 = test: as above; format: cell-based; conditions: Homo sapiens, read-out: growth inhibition % (GI%)
Experimental: as §1, §2

OVCAR-4 = test: as above; format: cell-based; conditions: Homo sapiens, read-out: growth inhibition % (GI%)
Experimental: as §1, §2

UACC-62 = test: as above; format: cell-based; conditions: Homo sapiens, read-out: growth inhibition % (GI%)
Experimental: as §1, §2

ACHN = test: as above; format: cell-based; conditions: Homo sapiens, read-out: growth inhibition % (GI%)
Experimental: as §1, §2

SNB-75 = test: as above; format: cell-based; conditions: Homo sapiens, read-out: growth inhibition % (GI%)
Experimental: as §1, §2

CAKI-1 = test: as above; format: cell-based; conditions: Homo sapiens, read-out: growth inhibition % (GI%)
Experimental: as §1, §2

LOX IMVI = test: as above; format: cell-based; conditions: Homo sapiens, read-out: growth inhibition % (GI%)
Experimental: as §1, §2

A498 = test: as above; format: cell-based; conditions: Homo sapiens, read-out: growth inhibition % (GI%)
Experimental: as §1, §2

K-562 = test: as above; format: cell-based; conditions: Homo sapiens, K562, read-out: growth inhibition % (GI%)
Experimental: as §1, §2

HOP-62 = test: as above; format: cell-based; conditions: Homo sapiens, read-out: growth inhibition % (GI%)
Experimental: as §1, §2

UACC-257 = test: as above; format: cell-based; conditions: Homo sapiens, read-out: growth inhibition % (GI%)
Experimental: as §1, §2

HCT-116 = test: as above; format: cell-based; conditions: Homo sapiens, read-out: growth inhibition % (GI%)
Experimental: as §1, §2

HS 578 T = test: as above; format: cell-based; conditions: Homo sapiens, read-out: growth inhibition % (GI%)
Experimental: as §1, §2

EKVX = test: as above; format: cell-based; conditions: Homo sapiens, read-out: growth inhibition % (GI%)
Experimental: as §1, §2

NCI-H226 = test: as above; format: cell-based; conditions: Homo sapiens, read-out: growth inhibition % (GI%)
Experimental: as §1, §2

HOP-92 = test: as above; format: cell-based; conditions: Homo sapiens, read-out: growth inhibition % (GI%)
Experimental: as §1, §2

NCI-H23 = test: as above; format: cell-based; conditions: Homo sapiens, read-out: growth inhibition % (GI%)
Experimental: as §1, §2

MCF7 = test: as above; format: cell-based; conditions: Homo sapiens, read-out: growth inhibition % (GI%)
Experimental: as §1, §2

OVCAR-5 = test: as above; format: cell-based; conditions: Homo sapiens, read-out: growth inhibition % (GI%)
Experimental: as §1, §2

UO-31 = test: as above; format: cell-based; conditions: Homo sapiens, read-out: growth inhibition % (GI%)
Experimental: as §1, §2

MOLT-4 = test: as above; format: cell-based; conditions: Homo sapiens, read-out: growth inhibition % (GI%)
Experimental: as §1, §2

SK-MEL-5 = test: as above; format: cell-based; conditions: Homo sapiens, read-out: growth inhibition % (GI%)
Experimental: as §1, §2

RPMI-8226 = test: as above; format: cell-based; conditions: Homo sapiens, read-out: growth inhibition % (GI%)
Experimental: as §1, §2

SNB-19 = test: as above; format: cell-based; conditions: Homo sapiens, read-out: growth inhibition % (GI%)
Experimental: as §1, §2

SF-268 = test: as above; format: cell-based; conditions: Homo sapiens, read-out: growth inhibition % (GI%)
Experimental: as §1, §2

SMILES: Cc1ccc(C(=O)c2ccc(CC(=O)NNC(=O)Nc3c(Cl)cccc3Cl)n2C)cc1 [Compound 8a, N-(2,6-Dichlorophenyl)-2–(2-(1-methyl-5–(4-methylbenzoyl)-1H-pyrrol-2-yl)acetyl) hydrazinecarboxamide]
- melting point: 245 to 247 °C
- inhibition at 10 µM (SN 12 C): < 10%
- inhibition at 10 µM (T-47D): 18%
- inhibition at 10 µM (OVCAR-8): < 10%
- inhibition at 10 µM (U251): 11.7%
- inhibition at 10 µM (NCI-H522): 15.9%
- inhibition at 10 µM (A549/ATCC): < 10%
- inhibition at 10 µM (SF-539): < 10%
- inhibition at 10 µM (BT-5): < 10%
- inhibition at 10 µM (SW-620): < 10%
- inhibition at 10 µM (HCT-15): < 10%
- inhibition at 10 µM (IGROV1): 14%
- inhibition at 10 µM (HCC-2998): < 10%
- inhibition at 10 µM (MDA-MB-231/ATCC): < 10%
- inhibition at 10 µM (PC-3): 10.5%
- inhibition at 10 µM (OVCAR-4): 16%
- inhibition at 10 µM (UACC-62): 11.1%
- inhibition at 10 µM (ACHN): < 10%
- inhibition at 10 µM (SNB-75): 28.1%
- inhibition at 10 µM (CAKI-1): 14.9%
- inhibition at 10 µM (LOX IMVI): < 10%
- inhibition at 10 µM (A498): < 10%
- inhibition at 10 µM (K-562): < 10%
- inhibition at 10 µM (HOP-62): 11.4%
- inhibition at 10 µM (UACC-257): < 10%
- inhibition at 10 µM (HCT-116): < 10%
- inhibition at 10 µM (HS 578 T): < 10%
- inhibition at 10 µM (EKVX): < 10%
- inhibition at 10 µM (NCI-H226): < 10%
- inhibition at 10 µM (HOP-92): < 10%
- inhibition at 10 µM (NCI-H23): < 10%
- inhibition at 10 µM (MCF7): 10%
- inhibition at 10 µM (OVCAR-5): < 10%
- inhibition at 10 µM (UO-31): 31.1%
- inhibition at 10 µM (MOLT-4): < 10%
- inhibition at 10 µM (SK-MEL-5): < 10%
- inhibition at 10 µM (RPMI-8226): < 10%
- inhibition at 10 µM (SNB-19): 17.7%
- inhibition at 10 µM (SF-268): < 10%
